In ChEMBL document CHEMBL1126053, “4-Amido-2-carboxytetrahydroquinolines. Structure-activity relationships for antagonism at the glycine site of the NMDA receptor” (J Med Chem, 1992):

biological target: T1, Glutamate receptor ionotropic, NMDA 1 (Rattus norvegicus, UniProt P35439); test: Inhibition of [3H]- glycine binding to N-methyl-D-aspartate glutamate receptor from rat cortical membranes; format: cell membranes, Membrane

For `O=C(Nc1cccc2ccccc12)N[C@H]1C[C@H](C(=O)O)Nc2cc(Cl)cc(Cl)c21`, which IC50 is on record?
The IC50 was 0.011 µM.

biological target: T1, Glutamate receptor ionotropic, NMDA 1; test: Inhibition of [3H]- glycine binding to NMDA receptor from rat cortical membranes.; format: cell membranes, Membrane

`N[C@H](Cc1ccccc1)C(=O)N[C@H]1C[C@H](C(=O)O)Nc2cc(Cl)cc(Cl)c21` was tested. Which IC50 did it give?
Its IC50 is 7 µM.

With `N[C@@H](Cc1ccccc1)C(=O)N[C@H]1C[C@H](C(=O)O)Nc2cc(Cl)cc(Cl)c21` as the compound, how does the IC50 read?
The IC50 was 1.05 µM.

How did the IC50 turn out when `N[C@@H](Cc1ccccc1)C(=O)N[C@@H]1C[C@@H](C(=O)O)Nc2cc(Cl)cc(Cl)c21` was run?
Its IC50 is greater than 100 µM.

`O=C(Nc1ccccc1)N[C@H]1C[C@H](C(=O)O)Nc2cc(Cl)cc(Cl)c21` was tested. Which IC50 did it give?
Its IC50 is 0.0074 µM.

`O=C(Cc1ccc(Cl)cc1)N[C@H]1C[C@H](C(=O)O)Nc2cc(Cl)cc(Cl)c21` was tested. Which IC50 did it give?
The IC50 was 0.052 µM.

With `O=C(Cc1ccccc1)N[C@H]1C[C@H](C(=O)O)Nc2cc(I)cc(Cl)c21` as the compound, how does the IC50 read?
The IC50 was 0.042 µM.

How did the IC50 turn out when `O=C(N[C@H]1C[C@H](C(=O)O)Nc2cc(Cl)cc(Cl)c21)C(c1ccccc1)c1ccccc1` was run?
The IC50 was 0.061 µM.

With `O=C(N[C@@H]1C[C@H](C(=O)O)Nc2cc(Cl)cc(Cl)c21)c1ccccc1` as the compound, how does the IC50 read?
Its IC50 is 8.3 µM.

`COc1ccc(CC(=O)N[C@H]2C[C@H](C(=O)O)Nc3cc(Cl)cc(Cl)c32)cc1` was tested. Which IC50 did it give?
The IC50 was 0.039 µM.

`O=C(N[C@H]1C[C@H](C(=O)O)Nc2cc(Cl)cc(Cl)c21)C1CCCCC1` was tested. Which IC50 did it give?
Its IC50 is 0.17 µM.

`O=C(N[C@H]1C[C@H](C(=O)O)Nc2cc(Cl)cc(Cl)c21)C1c2ccccc2-c2ccccc21` was tested. Which IC50 did it give?
Its IC50 is 0.025 µM.

How did the IC50 turn out when `Cc1ccccc1NC(=O)N[C@H]1C[C@H](C(=O)O)Nc2cc(Cl)cc(Cl)c21` was run?
The IC50 was 0.0073 µM.

`O=C(NCc1ccccc1)N[C@H]1C[C@H](C(=O)O)Nc2cc(Cl)cc(Cl)c21` was tested. Which IC50 did it give?
Its IC50 is 0.03 µM.

For `N[C@@H]1C[C@H](C(=O)O)Nc2cc(Cl)cc(Cl)c21`, which IC50 is on record?
The IC50 was 14.1 µM.

With `O=C(Cc1ccccc1)N[C@H]1C[C@H](C(=O)O)Nc2cc(Cl)cc(I)c21` as the compound, how does the IC50 read?
Its IC50 is 0.01 µM.

How did the IC50 turn out when `O=C(O)[C@H]1C[C@H](NC(=S)Nc2ccccc2)c2c(Cl)cc(Cl)cc2N1` was run?
The IC50 was 0.09 µM.

Which IC50 does the source give for `Nc1ccc(CC(=O)N[C@H]2C[C@H](C(=O)O)Nc3cc(Cl)cc(Cl)c32)cc1` here?
Its IC50 is 0.018 µM.

For `O=C(Cc1ccc(O)cc1)N[C@H]1C[C@H](C(=O)O)Nc2cc(Cl)cc(Cl)c21`, which IC50 is on record?
Its IC50 is 0.03 µM.

Which IC50 does the source give for `O=C(N[C@H]1C[C@H](C(=O)O)Nc2cc(Cl)cc(Cl)c21)c1ccccc1` here?
The IC50 was 0.1 µM.

With `CCCC(=O)N[C@H]1C[C@H](C(=O)O)Nc2cc(Cl)cc(Cl)c21` as the compound, how does the IC50 read?
The IC50 was 0.37 µM.

For `O=C(O)[C@H]1C[C@H](N2Cc3ccccc3C2=O)c2c(Cl)cc(Cl)cc2N1`, which IC50 is on record?
The IC50 was 0.027 µM.

With `O=C(O)[C@H]1C[C@H](NCc2ccccc2)c2c(Cl)cc(Cl)cc2N1` as the compound, how does the IC50 read?
Its IC50 is 10.7 µM.

Which IC50 does the source give for `O=C(O)[C@H]1C[C@H](N2CCCC2=O)c2c(Cl)cc(Cl)cc2N1` here?
Its IC50 is 0.046 µM.

How did the IC50 turn out when `O=C(Cc1cccs1)N[C@H]1C[C@H](C(=O)O)Nc2cc(Cl)cc(Cl)c21` was run?
Its IC50 is 0.032 µM.

`CC(C)(C)OC(=O)N[C@@H]1C[C@H](C(=O)O)Nc2cc(Cl)cc(Cl)c21` was tested. Which IC50 did it give?
The IC50 was 11.4 µM.

With `N[C@H](Cc1ccccc1)C(=O)N[C@@H]1C[C@@H](C(=O)O)Nc2cc(Cl)cc(Cl)c21` as the compound, how does the IC50 read?
The IC50 was greater than 1000 µM.

For `O=C(N[C@H]1C[C@H](C(=O)O)Nc2cc(Cl)cc(Cl)c21)c1ccco1`, which IC50 is on record?
Its IC50 is 0.15 µM.

Which IC50 does the source give for `O=C(O)[C@H]1C[C@H](NC(=O)N2CCc3ccccc32)c2c(Cl)cc(Cl)cc2N1` here?
Its IC50 is 0.22 µM.

With `Cc1cc(C)c2c(c1)N[C@@H](C(=O)O)C[C@@H]2NC(=O)Cc1ccccc1` as the compound, how does the IC50 read?
The IC50 was 0.067 µM.

Which IC50 does the source give for `O=C(CCc1ccccc1)N[C@H]1C[C@H](C(=O)O)Nc2cc(Cl)cc(Cl)c21` here?
The IC50 was 0.076 µM.

How did the IC50 turn out when `O=C(CCCc1ccccc1)N[C@H]1C[C@H](C(=O)O)Nc2cc(Cl)cc(Cl)c21` was run?
Its IC50 is 0.17 µM.

For `O=C(O)[C@H]1C[C@H](NS(=O)(=O)c2ccccc2)c2c(Cl)cc(Cl)cc2N1`, which IC50 is on record?
Its IC50 is 5.2 µM.

With `O=C(O)[C@H]1C[C@H](N2C(=O)c3ccccc3C2=O)c2c(Cl)cc(Cl)cc2N1` as the compound, how does the IC50 read?
The IC50 was 1.9 µM.

`O=C(CC1CCCCC1)N[C@H]1C[C@H](C(=O)O)Nc2cc(Cl)cc(Cl)c21` was tested. Which IC50 did it give?
The IC50 was 0.11 µM.

With `O=C(O)[C@H]1C[C@H](N2CCN(c3ccccc3)C2=O)c2c(Cl)cc(Cl)cc2N1` as the compound, how does the IC50 read?
The IC50 was 0.006 µM.

Which IC50 does the source give for `O=C(O)[C@H]1C[C@H](N2Cc3ccccc3CC2=O)c2c(Cl)cc(Cl)cc2N1` here?
Its IC50 is 0.072 µM.

Which IC50 does the source give for `O=C(Cc1ccsc1)N[C@H]1C[C@H](C(=O)O)Nc2cc(Cl)cc(Cl)c21` here?
The IC50 was 0.03 µM.

For `CC(C)(C)OC(=O)N[C@H]1C[C@H](C(=O)O)Nc2cc(Cl)cc(Cl)c21`, which IC50 is on record?
The IC50 was 0.94 µM.

Which IC50 does the source give for `O=C(N[C@H]1C[C@H](C(=O)O)Nc2cc(Cl)cc(Cl)c21)c1ccncc1` here?
The IC50 was 0.63 µM.

With `CC(=O)N[C@H]1C[C@H](C(=O)O)Nc2cc(Cl)cc(Cl)c21` as the compound, how does the IC50 read?
Its IC50 is 0.9 µM.

Which IC50 does the source give for `O=C(O)[C@H]1C[C@H](N2Cc3ccccc3NC2=O)c2c(Cl)cc(Cl)cc2N1` here?
Its IC50 is 0.51 µM.

`CN(C(=O)N[C@H]1C[C@H](C(=O)O)Nc2cc(Cl)cc(Cl)c21)c1ccccc1` was tested. Which IC50 did it give?
Its IC50 is 0.045 µM.

For `N#CN/C(=N\[C@H]1C[C@H](C(=O)O)Nc2cc(Cl)cc(Cl)c21)Nc1ccccc1`, which IC50 is on record?
Its IC50 is 0.58 µM.

Which IC50 does the source give for `O=C(O)[C@H]1CCc2c(Cl)cc(Cl)cc2N1` here?
Its IC50 is 6.4 µM.

With `Cc1ccc(NC(=O)N[C@H]2C[C@H](C(=O)O)Nc3cc(Cl)cc(Cl)c32)cc1` as the compound, how does the IC50 read?
The IC50 was 0.005 µM.

Which IC50 does the source give for `Cc1cccc(NC(=O)N[C@H]2C[C@H](C(=O)O)Nc3cc(Cl)cc(Cl)c32)c1` here?
Its IC50 is 0.018 µM.

How did the IC50 turn out when `O=C(N[C@H]1C[C@H](C(=O)O)Nc2cc(Cl)cc(Cl)c21)OCc1ccccc1` was run?
The IC50 was 0.079 µM.

Which IC50 does the source give for `O=C(NC1CCCCC1)N[C@H]1C[C@H](C(=O)O)Nc2cc(Cl)cc(Cl)c21` here?
The IC50 was 0.028 µM.

With `Cc1ccc(CC(=O)N[C@H]2C[C@H](C(=O)O)Nc3cc(Cl)cc(Cl)c32)cc1` as the compound, how does the IC50 read?
Its IC50 is 0.034 µM.

Which IC50 does the source give for `O=C(NCc1ccccc1)[C@H]1C[C@H](C(=O)O)Nc2cc(Cl)cc(Cl)c21` here?
Its IC50 is 1.7 µM.

For `O=C(CN[C@H]1C[C@H](C(=O)O)Nc2cc(Cl)cc(Cl)c21)Nc1ccccc1`, which IC50 is on record?
Its IC50 is 0.42 µM.

With `O=C(C[C@H]1C[C@H](C(=O)O)Nc2cc(Cl)cc(Cl)c21)Nc1ccccc1` as the compound, how does the IC50 read?
The IC50 was 0.03 µM.

How did the IC50 turn out when `O=C(O)[C@H]1C[C@H](NC(=O)N(c2ccccc2)c2ccccc2)c2c(Cl)cc(Cl)cc2N1` was run?
The IC50 was 0.019 µM.

For `O=C(Nc1ccccc1)N[C@H]1C[C@H](C(=O)O)Nc2cc(Cl)cc(I)c21`, which IC50 is on record?
The IC50 was 0.006 µM.

Which IC50 does the source give for `N[C@H]1C[C@H](C(=O)O)Nc2cc(Cl)cc(Cl)c21` here?
The IC50 was 11.3 µM.

How did the IC50 turn out when `O=C(Cc1ccccc1)N[C@H]1C[C@H](C(=O)O)Nc2cc(Cl)cc(Cl)c21` (stereo in doubt; 14) was run?
The IC50 was 0.014 µM.

For `O=C(Cc1ccccc1)N[C@H]1C[C@H](C(=O)O)Nc2cc(Cl)cc(Cl)c21` (stereo in doubt; 15), which IC50 is on record?
The IC50 was 0.011 µM.

How did the IC50 turn out when `O=C(Cc1ccccc1)N[C@H]1C[C@H](C(=O)O)Nc2cc(Cl)cc(Cl)c21` (stereo in doubt; 16) was run?
The IC50 was 5.9 µM.
